Experimental data published in patent publication US20220390459A1, “RAPID, HIGH-INTENSITY CHEMILUMINESCENT DIOXETANES” (Beckman Coulter, Inc., priority 2019, published 2022).

Tested on: alkaline phosphatase
Assay: Chemiluminescence intensity over time after combining the phosphate dioxetane with alkaline phosphatase solution
Format: biochemical
Conditions: for profile of emission intensity over time (in words): alkaline phosphatase in 221 buffer, compound and TBE concentration differ per example; for intensity and speed of luminescence compared with other examples (in words): AP8, TBE enhancer in 221 buffer, concentrations differ per example
[1] = compound 1.25 mg/mL, TBE enhancer 5 mg/mL in 221 buffer, 100 μL + 10 μL AP8, 37° C.
[2] = compound 0.125 mg/mL, TBE enhancer 2.5 mg/mL in 221 buffer, 100 μL + 10 μL AP8, 37° C.
[3] = compound 0.25 mg/mL, TBE enhancer 5 mg/mL in 221 buffer, 100 μL + 10 μL AP8, 37° C.
[4] = compound 0.25 mg/mL, TBE enhancer 2.5 mg/mL in 221 buffer, 100 μL + 10 μL AP8, 37° C.
[5] = compound 0.2 mg/mL in 221 buffer without TBE enhancer, 100 μL + 10 μL AP9 [1.24E-20 mole/μL], 37° C.

SMILES | profile of emission intensity over time (in words) (37° C.) | intensity and speed of luminescence compared with other examples (in words) (37° C.) | time to reach maximum, steady-state intensity [3] | Σ value [3] | other results
COC1(c2cccc(OP(=O)([O-])[O-])c2)OOC12C1CC3CC(C1)CC2C3.[Na+].[Na+] (centres unmarked) [Example 12, 4-methoxy-4-(3-phosphatephenyl)spiro[1,2-dioxetane-3,2′-adamantane], reference compound] | slow and gradual increase in emission intensity | – | – | – | profile of emission intensity over time (in words) (37° C., listed as Lumigen® PPD): slow luminescence; time to reach maximum light intensity or steady-state plateau [1]: more than 15 minutes; Σ value [1]: 2.27E+05
COC1(c2ccc(Cl)c(OP(=O)([O-])[O-])c2)OOC12C1CC3CC2CC(Cl)(C3)C1.[Na+].[Na+] (centres unmarked) [Example 13, reference compound] | slow and gradual increase in emission intensity | – | – | – | profile of emission intensity over time (in words) (37° C., listed as Tropix CDP-Star®): slow luminescence; time to reach maximum light intensity or steady-state plateau [2]: more than 15 minutes; Σ value [2]: 1.91E+05
COC1(c2ccc(-c3cccs3)c(OP(=O)([O-])[O-])c2)OOC12C1CC3CC(C1)CC2C3.[Na+].[Na+] (centres unmarked) [Example 14] | rapid increase in intensity | higher intensity and faster response compared to the compound of Examples 12-13 | ≤ 1 min | 9.97E+05 | –
COC1(c2ccc(-c3ccsc3)c(OP(=O)([O-])[O-])c2)OOC12C1CC3CC(C1)CC2C3.[Na+].[Na+] (centres unmarked) [Example 15] | rapid increase in intensity | higher intensity and faster response compared to the compound of Examples 12-13 | ≤ 2 min | 7.38E+05 | –
C=Cc1ccc(C2(OC)OOC23C2CC4CC(C2)CC3C4)cc1OP(=O)([O-])[O-].[Na+].[Na+] (centres unmarked) [Example 16] | rapid increase in intensity | higher intensity and faster response compared to the compound of Examples 12-15 | – | – | time to reach maximum, steady-state intensity [4]: less than 3 minutes; Σ value [4]: 1.59E+06
COC1(c2ccc(-c3ccc(C#N)s3)c(OP(=O)([O-])[O-])c2)OOC12C1CC3CC(C1)CC2C3.[Na+].[Na+] (centres unmarked) [Example 17] | rapid increase in intensity | – | – | – | time to reach maximum, steady-state intensity [5]: ≤ 2 min; Σ value [5]: 2.77E+05
